Test results reported in patent US7785388B2, “Method for producing stabilized nitrogen compositions” (priority 1999, dated 2010).
Where two headings read alike, the source gives them in different places.

Assays:
[1] = Aerobic dissolution activity, visual observation in open glasses of water; type: physicochemical; parameters: White grainy deposit / White rhombic froth / Reactivity/floating / Calcium settlements / Meniscus (white): scale not given here; conditions: for Calcium settlements / Evaporation / Meniscus (white) / Particles dissolved / Reactivity/floating / White grainy deposit / White rhombic froth: open air; for pH: open air water solutions
Method: Calcium cyanamide fines, homogeneous calcium cyanamide granules, heterogeneous calcium cyanamide/urea granules, calcium cyanamide granules, and urea were added to equal amounts of water in separate glasses and observed over time. Table 12 is a summary of those visual observations and highlights the vast differences between the aerobic dissolution properties and the chemical reactions over time of open air water solutions of CaNCN granules (1), CaNCN fines (2), homogeneous CaNCN/urea granules formed by melting together CaNCN fines and urea (3), heterogeneous CaNCN/urea granules with a calcium cyanamide core and a urea shell (4), and urea (5).

[2] = about 25° C.; cited from earlier work
[3] = tested on: microscopic eelworms (nematodes); conditions: not hydrolyzed, cited from earlier work
arginine production = conditions: cited from earlier work; for % Relative Arginine Increase: published data, CaNO3 as baseline
Phytophthora = conditions: cited from earlier work
lettuce seed = test: Seed emergence in band drenched lettuce and broccoli plots; type: in vivo; conditions: aqueous composition of calcium cyanamide alone as a drench
Method: Yet another test was conducted on lettuce and broccoli plots. […] The rates expressed relevant to strawberry bands were 8 lbs and 16 lbs of nitrogen per acre. […] However, where the drench was allowed to dry for several days before sprinkling, the lettuce seed emergence was reduced 100%. […]

[4] = tested on: microscopic eelworms (nematodes); conditions: 600-1200 lbs/acre, not hydrolyzed, Field Soil, dry; cited from earlier work
weeds = conditions: cited from earlier work
[5] = tested on: microscopic eelworms (nematodes); test: Inventor Study, WSU: nematode reduction in vitro
From the text: For comparison, results of some prior art studies using dry CaNCN application, liquid molecular cyanamide applications, and the results of an experiment using dicyandiamide are also included in Table 10.

Verticillium = conditions: cited from earlier work
Coliform = Coliform numbers in parlor wash manure with 0.2% CaNCN; type: cell-based; conditions: below about 0.2% by weight in manure, within 24-120 hrs
[6] = tested on: Meloidogyne chitwoodi J2 larvae; test: Meloidogyne chitwoodi J2 larvae killed after application in irrigation water; type: in vivo
From the text: This example was done under consultation with Washington State University. Agricultural plots were identified in Washington State.

corn = test: Crop yield after cornfield application; type: in vivo; conditions: nitrogen 160 lbs/acre for ammonia
From the text: Nitrate leaching after cornfield applications of 0.5% and 1% heterogeneous calcium cyanamide core/urea shell granules was also followed.

[7] = tested on: microscopic eelworms (nematodes); conditions: 100 lbs/acre, hydrolyzed + urease, In vitro; cited from earlier work
[8] = tested on: microscopic soil eelworms (nematodes); test: Strawberry bed drip irrigation test against methyl bromide, soil eelworms at 12 inch depth; type: in vivo; conditions: methyl bromide in pre-wetted beds
From the text: As a result of the before mentioned strawberry bed weed responses, the 70/30 composition was compared directly with methyl bromide (MB) during the California Strawberry Commission's annual testing for alternatives to the ozone negative pesticide, which is scheduled to be 70% banned by 2003. Our chosen objective was to replace pre-banded “slow release” nitrogen with stabilized urea/calcium cyanamide compositions at a similar cost per acre and see if we could attain reduction of weeds and diseases similar to methyl bromide.
The urea/calcium cyanamide composition was applied to pre-wetted and preformed beds through drip irrigation tubes, typically 2 of which are laid inside of where two rows of berry plants will be planted on the outside bed edges. Applications of 100 lbs/acre were compared where the calcium cyanamide composition was applied over 1 hour and 2 hour periods to vary the depth and width of its distribution.
Soil samples, taken at a depth of 12″ in bed centers, were sent for analysis by the Commission. […] It is assumed that the pre-wetting of soil required for bed shaping, caused restricted movement of the methyl bromide gas through the soil.

[9] = dry incorporated, 1,000 lbs./acre
[10] = shank injected and tarped, 350 lbs/acre

Row | Compound | Calcium settlements ([1]; 1 hour) | Evaporation ([1]; 1 hour) | Meniscus (white) ([1]; 1 hour) | Particles dissolved ([1]; 1 hour) | Reactivity/floating ([1]; 1 hour) | White grainy deposit ([1]; 1 hour) | White rhombic froth ([1]; 1 hour) | Calcium settlements ([1]; 24 hours) | Evaporation ([1]; 24 hours) | Meniscus (white) ([1]; 24 hours) | Particles dissolved ([1]; 24 hours) | Reactivity/floating ([1]; 24 hours) | White grainy deposit ([1]; 24 hours) | White rhombic froth ([1]; 24 hours) | Calcium settlements ([1]; 30 days) | Evaporation ([1]; 30 days) | Meniscus (white) ([1]; 30 days) | Particles dissolved ([1]; 30 days) | Reactivity/floating ([1]; 30 days) | White grainy deposit ([1]; 30 days) | other results
1 | [Ca+2].[N-]=C=[N-] [(1)Granules, calcium cyanamide] | 0 | 0 | 0 | 0 | 0 | 0 | 0 | 0 | 0 | 0 | 2 | 2 | 0 | 0 | 1 | 5 | 1 | 2 | 4 | 2 | White rhombic froth ([1]; 30 days): 0; pH [1]: (1)Granules(12)
2 | N#CN [H2NCN liquid, molecular cyanamide] | – | – | – | – | – | – | – | – | – | – | – | – | – | – | – | – | – | – | – | – | acid dissociation constant [2]: about 5.42×10^−11; Nematode Reduction ([3]; 112 lbs/acre, In vitro): 100%; stimulation of arginine production relative to urea (arginine production; in plants): 20 times
3 | [Ca+2].[N-]=C=[N-] [CaNCN, calcium cyanamide] | – | – | – | – | – | – | – | – | – | – | – | – | – | – | – | – | – | – | – | – | reduction of Phytophthora (Phytophthora; [9]): 0%; lettuce seed emergence reductions (lettuce seed; 5 lbs CaNCN N/acre): 85%; lettuce seed emergence reductions (lettuce seed; 10 lbs CaNCN N/acre): 100%; Nematode Reduction ([3]; 1200-2400 equiv. lbs/acre, Wet pot soil): 41-66%; Nematode Reduction ([3]; 1200-2400 lbs/acre, Dry): 4-8%; Nematode Reduction ([3]; 1200-2400 lbs/acre, Wet): 42-54%; Nematode Reduction [4]: 0%; weeds reduced (weeds; dry surface incorporation of 1000 lbs/acre followed by 0.5 acre inch sprinkler water): 95%; Nematode Reduction ([5]; 9 lbs/acre in distilled water, hydrolyzed, pH = 12.6, In vitro): 100%; Nematode Reduction ([5]; 29 lbs/acre in tap water, hydrolyzed, pH = 10, In vitro): 0%; reduction of Verticillium (Verticillium; [9]): 8%; % Relative Arginine Increase (arginine production): 639%; reductions in coliform bacteria (Coliform): 99.999%
4 | [Ca+2].[N-]=C=[N-] [(2)Fines, calcium cyanamide] | 0 | 0 | 0 | 2 | 1 | 0 | 0 | 10 | 0 | 8 | 7 | 10 | 0 | 0 | 10 | 5 | 9 | 8 | 10 | 6 | White rhombic froth ([1]; 30 days): 0; pH [1]: (2)Fines(12)
5 | [Na+].[OH-] [NaOH, sodium hydroxide] | – | – | – | – | – | – | – | – | – | – | – | – | – | – | – | – | – | – | – | – | Final pH ([6]; 35 lbs/acre at 1/2 inch depth): 10.6; J2 nema - % killed ([6]; 35 lbs/acre at 1/2 inch depth): 98.6%; Final pH ([6]; 70 lbs/acre at 1/2 inch depth): 11.4; J2 nema - % killed ([6]; 70 lbs/acre at 1/2 inch depth): 100%; Final pH ([6]; 105 lbs/acre at 1/2 inch depth): 11.7; J2 nema - % killed ([6]; 105 lbs/acre at 1/2 inch depth): 100%; Nematode Reduction ([5]; 35 lbs/acre in tap water, pH = 10, In vitro): 99%
6 | N#CN=C(N)N [Dicyan-Diamide, dicyandiamide, reference compound] | – | – | – | – | – | – | – | – | – | – | – | – | – | – | – | – | – | – | – | – | Nematode Reduction ([5]; 102 lbs/acre in distilled water, pH = 8, In vitro): 0%
7 | N [Ammonia] | – | – | – | – | – | – | – | – | – | – | – | – | – | – | – | – | – | – | – | – | Yield (corn; Field 1, 120 lbs/acre for granules): 180 bushel/acre; Yield (corn; Field 2, 120 lbs/acre for granule): 177 bushel/acre
8 | NC(N)=O [Urea, urea, reference compound] | 0 | 0 | 0 | 0 | 0 | 0 | 0 | 0 | 0 | 0 | 9 | 0 | 0 | 0 | 0 | 4 | 0 | 10 | 0 | 0 | White rhombic froth ([1]; 30 days): 0; pH [1]: (5)Urea(8); Nematode Reduction [7]: 100%; % Relative Arginine Increase (arginine production): 69%
9 | CBr [methyl bromide, reference compound] | – | – | – | – | – | – | – | – | – | – | – | – | – | – | – | – | – | – | – | – | reduction of microscopic soil eelworms (nematodes) [8]: completely ineffective; reduction of Phytophthora (Phytophthora; [10]): 100%; weeds reduced (weeds; shank injected followed by tarping, 350 lbs/acre): 85%; reduction of Verticillium (Verticillium; [10]): 73%
10 | O=[N+]([O-])[O-].O=[N+]([O-])[O-].[Ca+2] [CaNO3-baseline, calcium nitrate] | – | – | – | – | – | – | – | – | – | – | – | – | – | – | – | – | – | – | – | – | % Relative Arginine Increase (arginine production): 0%
